System: MV-4-11 cells
Assay: Gene expression microarray analysis (Affymetrix PrimeView) and GSEA
Format: cell-based, human
Parameters: RFU PODN (11730768_x_at) / Fold change /veh PODN (11730768_x_at) / RFU LINC00158 (11744669_a_at) / Fold change /veh LINC00158 (11744669_a_at) / RFU DUSP10 (11751237_a_at) / Fold change /veh DUSP10 (11751237_a_at) / RFU ID3 (11757404_x_at) / Fold change /veh ID3 (11757404_x_at) / RFU PLEKHG5 (11737974_s_at) / Fold change /veh PLEKHG5 (11737974_s_at) / RFU LRRC4B (11730491_at) / Fold change /veh LRRC4B (11730491_at) / RFU GIMAP4 (11747438_a_at) / Fold change /veh GIMAP4 (11747438_a_at) / RFU KRT8 (11758183_x_at) / Fold change /veh KRT8 (11758183_x_at) / RFU CNN1 (11734310_a_at) / Fold change /veh CNN1 (11734310_a_at) / RFU VPS37D (11726825_at) / Fold change /veh VPS37D (11726825_at) / RFU C10orf10 (11716522_x_at) / Fold change /veh C10orf10 (11716522_x_at) / RFU KIR2DL2 /// KIR2DL4 /// KIR2DL5A /// KIR2DL5B /// KIR2DS1 /// KIR2DS2 /// KIR2DS3 /// KIR2DS4 /// KIR3DL3 /// KIR3DL3 /// KIR3DS1 (11738374_at) / Fold change /veh KIR2DL2 /// KIR2DL4 /// KIR2DL5A /// KIR2DL5B /// KIR2DS1 /// KIR2DS2 /// KIR2DS3 /// KIR2DS4 /// KIR3DL3 /// KIR3DL3 /// KIR3DS1 (11738374_at) / RFU C1QL1 (11718748_at) / Fold change /veh C1QL1 (11718748_at) / RFU TMPRSS4 (11747572_a_at) / Fold change /veh TMPRSS4 (11747572_a_at) / RFU HAMP (11756126_x_at) / Fold change /veh HAMP (11756126_x_at) / RFU RNFT2 (11725882_a_at) / Fold change /veh RNFT2 (11725882_a_at) / RFU NR4A2 (11747474_a_at) / Fold change /veh NR4A2 (11747474_a_at) / RFU ABCC12 (11746883_a_at) / Fold change /veh ABCC12 (11746883_a_at) / RFU TMEM136 (11760407_x_at) / Fold change /veh TMEM136 (11760407_x_at) / RFU CLDN22 /// WWC2 (11732394_at) / Fold change /veh CLDN22 /// WWC2 (11732394_at) / RFU HLA-DPB1 (11760878_x_at) / Fold change /veh HLA-DPB1 (11760878_x_at) / RFU SPINT1 (11716480_a_at) / Fold change /veh SPINT1 (11716480_a_at) / RFU GAP43 (11754022_s_at) / Fold change /veh GAP43 (11754022_s_at) / RFU A4GNT (11735810_at) / Fold change /veh A4GNT (11735810_at) / RFU PRB3 (11715151_x_at) / Fold change /veh PRB3 (11715151_x_at) / RFU TUBB4B (11761932_at) / Fold change /veh TUBB4B (11761932_at) / RFU CAPN14 (11732068_a_at) / Fold change /veh CAPN14 (11732068_a_at) / RFU TMCC2 (11721928_a_at) / Fold change /veh TMCC2 (11721928_a_at) / RFU IRGQ (11745062_a_at) / Fold change /veh IRGQ (11745062_a_at) / RFU FAM174B (11720279_a_at) / Fold change /veh FAM174B (11720279_a_at) / RFU TMPRSS4 (11748680_a_at) / Fold change /veh TMPRSS4 (11748680_a_at) / RFU FAM212B (11763350_a_at) / Fold change /veh FAM212B (11763350_a_at) / RFU PLEKHG5 (11743358_a_at) / Fold change /veh PLEKHG5 (11743358_a_at) / RFU ZSCAN30 (11745921_a_at) / Fold change /veh ZSCAN30 (11745921_a_at) / RFU CMKLR1 (11741424_a_at) / Fold change /veh CMKLR1 (11741424_a_at) / RFU LOC101060620 /// MAPK8IP1 (11723275_at) / Fold change /veh LOC101060620 /// MAPK8IP1 (11723275_at) / RFU SPTSSB (11747773_x_at) / Fold change /veh SPTSSB (11747773_x_at) / RFU PRSS12 (11739890_at) / Fold change /veh PRSS12 (11739890_at) / RFU BIN1 (11741810_x_at) / Fold change /veh BIN1 (11741810_x_at) / RFU WNT11 (11732464_a_at) / Fold change /veh WNT11 (11732464_a_at) / RFU C10orf10 (11716521_a_at) / Fold change /veh C10orf10 (11716521_a_at) / RFU C5orf56 (11738089_at) / Fold change /veh C5orf56 (11738089_at) / RFU CYB561 (11721691_x_at) / Fold change /veh CYB561 (11721691_x_at) / RFU ANKRD19P (11752326_a_at) / Fold change /veh ANKRD19P (11752326_a_at) / RFU OR2T12 /// OR2T33 /// OR2T8 (11738714_s_at) / Fold change /veh OR2T12 /// OR2T33 /// OR2T8 (11738714_s_at) / RFU VCAN (11748164_a_at) / Fold change /veh VCAN (11748164_a_at) / RFU JSRP1 (11732532_at) / Fold change /veh JSRP1 (11732532_at) / RFU KRTAP10-11 (11738290_x_at) / Fold change /veh KRTAP10-11 (11738290_x_at) / RFU MYO3A (11730013_a_at) / Fold change /veh MYO3A (11730013_a_at) / RFU EBF3 (11725865_a_at) / Fold change /veh EBF3 (11725865_a_at) / RFU CAMK2N1 (11719241_x_at) / Fold change /veh CAMK2N1 (11719241_x_at) / RFU C5orf56 (11738088_a_at) / Fold change /veh C5orf56 (11738088_a_at) / RFU OLFML3 (11715873_a_at) / Fold change /veh OLFML3 (11715873_a_at) / RFU LOC100653217 /// NTM (11731650_a_at) / Fold change /veh LOC100653217 /// NTM (11731650_a_at) / RFU MAPK11 (11762145_a_at) / Fold change /veh MAPK11 (11762145_a_at) / RFU FIZ1 (11724087_x_at) / Fold change /veh FIZ1 (11724087_x_at) / RFU OASL (11726364_x_at) / Fold change /veh OASL (11726364_x_at) / RFU SOX15 (11748057_x_at) / Fold change /veh SOX15 (11748057_x_at) / RFU CD79A (11719716_a_at) / Fold change /veh CD79A (11719716_a_at) / RFU HIST1H1D (11736915_at) / Fold change /veh HIST1H1D (11736915_at) / RFU CASKIN2 (11723855_a_at) / Fold change /veh CASKIN2 (11723855_a_at) / RFU LOC730098 (11760151_x_at) / Fold change /veh LOC730098 (11760151_x_at) / RFU OR4N2 (11742367_at) / Fold change /veh OR4N2 (11742367_at) / RFU PRRT2 (11749266_a_at) / Fold change /veh PRRT2 (11749266_a_at) / RFU SNX32 (11753110_a_at) / Fold change /veh SNX32 (11753110_a_at) / RFU CDHR5 (11726645_a_at) / Fold change /veh CDHR5 (11726645_a_at) / RFU RCAN1 (11760418_a_at) / Fold change /veh RCAN1 (11760418_a_at) / RFU FAM167A (11723789_a_at) / Fold change /veh FAM167A (11723789_a_at) / RFU FAM26E (11764081_at) / Fold change /veh FAM26E (11764081_at) / RFU ISYNA1 (11749810_s_at) / Fold change /veh ISYNA1 (11749810_s_at) / RFU ACY1 (11761880_at) / Fold change /veh ACY1 (11761880_at) / RFU 11764098_at / Fold change /veh 11764098_at / RFU SAMD14 (11745864_x_at) / Fold change /veh SAMD14 (11745864_x_at) / RFU NPB (11741838_a_at) / Fold change /veh NPB (11741838_a_at) / RFU TMPRSS6 (11731388_a_at) / Fold change /veh TMPRSS6 (11731388_a_at) / RFU KRTAP10-2 (11738614_at) / Fold change /veh KRTAP10-2 (11738614_at) / RFU ARHGAP8 /// PRR5-ARHGAP8 (11727945_x_at) / Fold change /veh ARHGAP8 /// PRR5-ARHGAP8 (11727945_x_at) / RFU KRTAP5-7 /// NADSYN1 (11734609_at) / Fold change /veh KRTAP5-7 /// NADSYN1 (11734609_at) / RFU RASL12 (11751679_a_at) / Fold change /veh RASL12 (11751679_a_at) / RFU CDKN2B (11736163_a_at) / Fold change /veh CDKN2B (11736163_a_at) / RFU PRF1 (11729649_at) / Fold change /veh PRF1 (11729649_at) / RFU, ZNF638 /// ZNF638-IT1 / Fold change vs veh, ZNF638 /// ZNF638-IT1 / RFU, PANK3 / Fold change vs veh, PANK3 / RFU, SH3YL1 / Fold change vs veh, SH3YL1 / RFU, ZEB2 / Fold change vs veh, ZEB2 / RFU, NRIP1 / Fold change vs veh, NRIP1 / RFU, PTTG1IP / Fold change vs veh, PTTG1IP / RFU, CAPN2 / Fold change vs veh, CAPN2 / RFU, MED14 / Fold change vs veh, MED14 / RFU, SNORA58 / Fold change vs veh, SNORA58 / RFU, C1orf63 / Fold change vs veh, C1orf63 / RFU, LRRFIP1 / Fold change vs veh, LRRFIP1 / RFU, NDUFAF7 / Fold change vs veh, NDUFAF7 / RFU, SLC12A2 / Fold change vs veh, SLC12A2 / RFU, IBTK / Fold change vs veh, IBTK / RFU, ESF1 / Fold change vs veh, ESF1 / Fold change vs veh, TMEM50B / RFU, TAOK1 / Fold change vs veh, TAOK1 / RFU, ACBD3 / Fold change vs veh, ACBD3 / RFU, TMA16 / Fold change vs veh, TMA16 / RFU, RWDD3 / Fold change vs veh, RWDD3 / RFU, BCAT1 / Fold change vs veh, BCAT1 / RFU, EDEM3 / Fold change vs veh, EDEM3 / RFU, TMEM33 / Fold change vs veh, TMEM33 / RFU, WDR75 / Fold change vs veh, WDR75 / RFU, AHCTF1 / Fold change vs veh, AHCTF1 / RFU, TFRC / Fold change vs veh, TFRC / RFU, ZDHHC17 / Fold change vs veh, ZDHHC17 / RFU, NOM1 / Fold change vs veh, NOM1 / RFU, ARL8B / Fold change vs veh, ARL8B / RFU, ZBTB11 / Fold change vs veh, ZBTB11 / RFU, TAMM41 / Fold change vs veh, TAMM41 / RFU, KIAA1704 /// LOC100996395 / Fold change vs veh, KIAA1704 /// LOC100996395 / RFU, ING1 / Fold change vs veh, ING1 / RFU, TRMT61B / Fold change vs veh, TRMT61B / RFU, FUBP3 / Fold change vs veh, FUBP3 / RFU, TP53 / Fold change vs veh, TP53 / RFU, TNKS2 / Fold change vs veh, TNKS2 / RFU, ZFP14 / Fold change vs veh, ZFP14 / RFU, ACTR2 / Fold change vs veh, ACTR2 / RFU, PPP3R1 / Fold change vs veh, PPP3R1 / RFU, PIK3R1 / Fold change vs veh, PIK3R1 / RFU, HNRNPA1 / Fold change vs veh, HNRNPA1 / RFU, RNF170 / Fold change vs veh, RNF170 / RFU, ZNF28 / Fold change vs veh, ZNF28 / RFU, RNGTT / Fold change vs veh, RNGTT / RFU, OGT / Fold change vs veh, OGT / RFU, BRD1 / Fold change vs veh, BRD1 / RFU, MARS / Fold change vs veh, MARS / RFU, ZNF655 / Fold change vs veh, ZNF655 / RFU, FAHD1 / Fold change vs veh, FAHD1 / RFU, BDP1 / Fold change vs veh, BDP1 / RFU, LRRCC1 / Fold change vs veh, LRRCC1 / RFU, ARID1A / Fold change vs veh, ARID1A / RFU, ZNF146 / Fold change vs veh, ZNF146 / RFU, ZNF330 / Fold change vs veh, ZNF330 / RFU, GPN3 / Fold change vs veh, GPN3 / RFU, C9orf123 / Fold change vs veh, C9orf123 / RFU, N4BP2L2 / Fold change vs veh, N4BP2L2 / RFU, ARFIP1 / Fold change vs veh, ARFIP1 / RFU, FAM179B / Fold change vs veh, FAM179B / RFU, BCL10 / Fold change vs veh, BCL10 / RFU, UHRF1BP1L / Fold change vs veh, UHRF1BP1L / RFU, BET1 / Fold change vs veh, BET1 / RFU, CNOT2 / Fold change vs veh, CNOT2 / RFU, ZNF268 / Fold change vs veh, ZNF268 / Fold change vs veh, ZNF507 / RFU, DGCR2 / Fold change vs veh, DGCR2 / RFU, WDSUB1 / Fold change vs veh, WDSUB1 / Fold change vs veh, HSP90B1 /// MIR3652 / RFU, ADSS / Fold change vs veh, ADSS / RFU, GK / Fold change vs veh, GK / RFU, ZNF148 / Fold change vs veh, ZNF148 / RFU, TAF9 / Fold change vs veh, TAF9 / RFU, SLC1A5 / Fold change vs veh, SLC1A5 / RFU, SLMO2 / Fold change vs veh, SLMO2 / RFU, ABCC4 / Fold change vs veh, ABCC4 / RFU, LOC101060439 /// RAP1B / Fold change vs veh, LOC101060439 /// RAP1B / RFU, RFX7 / Fold change vs veh, RFX7 / RFU, GTPBP10 / Fold change vs veh, GTPBP10 / RFU, CNEP1R1 / Fold change vs veh, CNEP1R1 / RFU, BIVM-ERCC5 /// ERCC5 / Fold change vs veh, BIVM-ERCC5 /// ERCC5 / RFU, ILF3 / Fold change vs veh, ILF3 / RFU 11762660_at / Fold change /veh 11762660_at / RFU VCAN (11757783_s_at) / Fold change /veh VCAN (11757783_s_at) / RFU DDX43 (11728927_at) / Fold change /veh DDX43 (11728927_at) / RFU KRT8 (11758188_x_at) / Fold change /veh KRT8 (11758188_x_at) / RFU NKD1 (11759106_at) / Fold change /veh NKD1 (11759106_at) / RFU SRD5A1 (11742802_a_at) / Fold change /veh SRD5A1 (11742802_a_at) / RFU TPSAB1 /// TPSB2 (11721975_s_at) / Fold change /veh TPSAB1 /// TPSB2 (11721975_s_at) / RFU GSTM3 (11746129_a_at) / Fold change /veh GSTM3 (11746129_a_at) / RFU IL23R (11737362_x_at) / Fold change /veh IL23R (11737362_x_at) / RFU TMEM51 (11727254_a_at) / Fold change /veh TMEM51 (11727254_a_at) / RFU PIWIL2 (11732686_x_at) / Fold change /veh PIWIL2 (11732686_x_at) / RFU ORM1 (11744905_x_at) / Fold change /veh ORM1 (11744905_x_at) / RFU CCDC152 (11743942_at) / Fold change /veh CCDC152 (11743942_at) / RFU ECM1 (11717891_a_at) / Fold change /veh ECM1 (11717891_a_at) / RFU IL23R (11748794_a_at) / Fold change /veh IL23R (11748794_a_at) / RFU TNFAIP8L3 (11732012_x_at) / Fold change /veh TNFAIP8L3 (11732012_x_at) / RFU MBOAT4 (11741988_at) / Fold change /veh MBOAT4 (11741988_at) / RFU 11764193_at / Fold change /veh 11764193_at / RFU TMEM53 (11763286_at) / Fold change /veh TMEM53 (11763286_at) / RFU MAGEB2 (11727129_at) / Fold change /veh MAGEB2 (11727129_at) / RFU TMEM200A (11744735_a_at) / Fold change /veh TMEM200A (11744735_a_at) / RFU CCDC152 (11751479_a_at) / Fold change /veh CCDC152 (11751479_a_at) / RFU FAM211A (11726209_a_at) / Fold change /veh FAM211A (11726209_a_at) / RFU RGS16 (11746705_a_at) / Fold change /veh RGS16 (11746705_a_at) / RFU VCAN (11755009_s_at) / Fold change /veh VCAN (11755009_s_at) / RFU RHOB (11743442_s_at) / Fold change /veh RHOB (11743442_s_at) / RFU RGS16 (11720943_a_at) / Fold change /veh RGS16 (11720943_a_at) / RFU RGS16 (11720944_at) / Fold change /veh RGS16 (11720944_at) / RFU, VPS4B / Fold change vs veh, VPS4B / RFU, CREB1 / Fold change vs veh, CREB1 / RFU, DNAJC13 / Fold change vs veh, DNAJC13 / RFU, GNAQ / Fold change vs veh, GNAQ / RFU, CDK5R1 / Fold change vs veh, CDK5R1 / RFU, ZRANB3 / Fold change vs veh, ZRANB3 / RFU, CUL4A / Fold change vs veh, CUL4A / RFU, CCNY / Fold change vs veh, CCNY / RFU, UFL1 / Fold change vs veh, UFL1 / RFU, COG3 / Fold change vs veh, COG3 / RFU, DIAPH2 / Fold change vs veh, DIAPH2 / RFU, SKA2 / Fold change vs veh, SKA2 / RFU, AFF3 / Fold change vs veh, AFF3 / RFU, LMF1 / Fold change vs veh, LMF1 / RFU, IPO11 / Fold change vs veh, IPO11 / RFU, DFFB / Fold change vs veh, DFFB / RFU, FOXP1 / Fold change vs veh, FOXP1 / RFU, CARD8 / Fold change vs veh, CARD8 / RFU, STRN3 / Fold change vs veh, STRN3 / RFU, ADK / Fold change vs veh, ADK / RFU, RASSF2 / Fold change vs veh, RASSF2 / RFU, WIPF1 / Fold change vs veh, WIPF1 / RFU, LARP1B / Fold change vs veh, LARP1B / RFU, RASA1 / Fold change vs veh, RASA1 / RFU, RB1 / Fold change vs veh, RB1 / RFU, PPFIA1 / Fold change vs veh, PPFIA1 / RFU, MAT2A / Fold change vs veh, MAT2A / RFU, CCT5 / Fold change vs veh, CCT5 / RFU, WDR92 / Fold change vs veh, WDR92 / RFU, CUX1 / Fold change vs veh, CUX1 / RFU, TTC7A / Fold change vs veh, TTC7A / RFU, TMEM135 / Fold change vs veh, TMEM135 / RFU, DEPTOR / Fold change vs veh, DEPTOR / RFU, CPM / Fold change vs veh, CPM / RFU, DNAJB6 / Fold change vs veh, DNAJB6 / RFU, CACNA2D3 / Fold change vs veh, CACNA2D3 / RFU, DTX4 / Fold change vs veh, DTX4 / RFU, TFCP2 / Fold change vs veh, TFCP2 / RFU, GMCL1 /// GMCL1P1 / Fold change vs veh, GMCL1 /// GMCL1P1 / RFU, AEBP2 / Fold change vs veh, AEBP2 / RFU, SNHG1 /// SNORD22 /// SNORD25 /// SNORD26 /// SNORD27 /// SNORD28 /// SNORD29 /// SNORD31 / Fold change vs veh, SNHG1 /// SNORD22 /// SNORD25 /// SNORD26 /// SNORD27 /// SNORD28 /// SNORD29 /// SNORD31 / Fold change (Aza/veh), C12orf56 (ProbeSet 11735607_a_at) / Fold change (ACY-1035/veh), C12orf56 (ProbeSet 11735607_a_at) / Fold change (Aza/veh), FGFR1OP (ProbeSet 11751329_s_at) / Fold change (ACY-1035/veh), FGFR1OP (ProbeSet 11751329_s_at) / Fold change (Aza/veh), VPS36 (ProbeSet 11739960_a_at) / Fold change (ACY-1035/veh), VPS36 (ProbeSet 11739960_a_at) / RFU SYPL1 (11715823_x_at) / Fold change /veh SYPL1 (11715823_x_at) / RFU IGFBP7 (11715501_s_at) / Fold change /veh IGFBP7 (11715501_s_at) / RFU REEP3 (11722064_at) / Fold change /veh REEP3 (11722064_at) / RFU IGLL1 (11728026_x_at) / Fold change /veh IGLL1 (11728026_x_at): dose or concentration left out as unconfirmed
Settings: MV-4-11 cells, 48 hours

SMILES: Nc1ccc(-c2cccs2)cc1NC(=O)c1ccc2c(c1)cc(C1CC1)n2CCN1CCOCC1 [ACY-1035]
- Fold change /veh LRRC4B (11730491_at): 1.07

From paper PMC5218480 (PLoS ONE, 2017)
